In US12077503B2, “Substituted cyclic amides and their use as herbicides” (FMC CORPORATION, priority 2015, dated 2024):

Columns and labels:
Assay type in all cases: in vivo
[1] = tested on: giant foxtail (Setaria faberi); experiment: Test G Post-Emergence Protocol; conditions: Setaria faberi, post-emergence, 312 h, read-out: Foxtail, Giant damage rating; for pest or weed control at 15.625 g/ha: 15.625 g ai/ha, evaluated after 13 days (100=total damage to plant; 0=no damage to plant); for pest or weed control at 62.5 g/ha: 62.5 g ai/ha
Outline: (§1)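 Eight days post-sowing, plants received a spray of test compound (acetone/water 50:50, 0.5% Tween 20) at 15.625, 62.5 or 250 g/ha. Glasshouse regime thereafter: 24/16 °C, 14 h light, 65% humidity. Assessment after 13 days on a 0–100 damage scale.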

corn (Zea mays) [2] = experiment: Test G Post-Emergence Protocol; conditions: Zea mays, post-emergence, 312 h, read-out: Corn damage rating; for plant injury at 15.625 g/ha: 15.625 g ai/ha, evaluated after 13 days (100=total damage to plant; 0=no damage to plant); for plant injury at 62.5 g/ha: 62.5 g ai/ha; for plant injury at 62.5 g/ha / plant injury at 250 g/ha: evaluated after 13 days, 100=total damage to plant, 0=no damage to plant; for plant injury at 250 g/ha: 250 g ai/ha
Outline: as §1

[3] = tested on: redroot pigweed (Amaranthus retroflexus); experiment: Test G Post-Emergence Protocol; conditions: Amaranthus retroflexus, post-emergence, 312 h, read-out: Pigweed, Redroot damage rating; for pest or weed control at 15.625 g/ha: 15.625 g ai/ha, evaluated after 13 days (100=total damage to plant; 0=no damage to plant); for pest or weed control at 62.5 g/ha: 62.5 g ai/ha; for pest or weed control at 62.5 g/ha / pest or weed control at 250 g/ha: evaluated after 13 days, 100=total damage to plant, 0=no damage to plant; for pest or weed control at 250 g/ha: 250 g ai/ha
Outline: as §1

[4] = tested on: ivy-leaved morning glory (Ipomoea hederacea); experiment: Test G Post-Emergence Protocol; conditions: Ipomoea, post-emergence, 312 h, read-out: Morningglory, Ivy-leaved damage rating; for pest or weed control at 15.625 g/ha: 15.625 g ai/ha, evaluated after 13 days (100=total damage to plant; 0=no damage to plant); for pest or weed control at 62.5 g/ha: 62.5 g ai/ha; for pest or weed control at 62.5 g/ha / pest or weed control at 250 g/ha: evaluated after 13 days, 100=total damage to plant, 0=no damage to plant; for pest or weed control at 250 g/ha: 250 g ai/ha
Outline: as §1

[5] = tested on: barnyardgrass (Echinochloa crus-galli); experiment: Test G Post-Emergence Protocol; conditions: Echinochloa crus-galli, post-emergence, 312 h, read-out: Barnyardgrass damage rating; for pest or weed control at 15.625 g/ha: 15.625 g ai/ha, evaluated after 13 days (100=total damage to plant; 0=no damage to plant); for pest or weed control at 62.5 g/ha: 62.5 g ai/ha; for pest or weed control at 62.5 g/ha / pest or weed control at 250 g/ha: evaluated after 13 days, 100=total damage to plant, 0=no damage to plant; for pest or weed control at 250 g/ha: 250 g ai/ha
Outline: as §1

[6] = tested on: velvetleaf (Abutilon theophrasti); experiment: Test G Post-Emergence Protocol; conditions: Abutilon theophrasti, post-emergence, 312 h, read-out: Velvetleaf damage rating; for pest or weed control at 15.625 g/ha: 15.625 g ai/ha, evaluated after 13 days (100=total damage to plant; 0=no damage to plant); for pest or weed control at 62.5 g/ha: 62.5 g ai/ha; for pest or weed control at 62.5 g/ha / pest or weed control at 250 g/ha: evaluated after 13 days, 100=total damage to plant, 0=no damage to plant; for pest or weed control at 250 g/ha: 250 g ai/ha
Outline: as §1

[7] = tested on: giant foxtail (Setaria faberi); experiment: Test G Pre-Emergence Protocol; conditions: Setaria faberi, pre-emergence, 312 h, evaluated after 13 days; for pest or weed control at 15.625 g/ha: 15.625 g ai/ha; for pest or weed control at 15.625 g/ha / pest or weed control at 250 g/ha: read-out: Foxtail, Giant damage rating (100=total damage to plant; 0=no damage to plant); for pest or weed control at 62.5 g/ha: 62.5 g ai/ha, 100=total damage to plant, 0=no damage to plant, read-out: Foxtail, Giant damage rating; for pest or weed control at 250 g/ha: 250 g ai/ha
Outline: (§2)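 Seeds were sown in standard soil and kept one day in a glasshouse (24/16° C day/night, 14 h light, 65% humidity), then sprayed with compound in acetone/water (50:50) containing 0.5% Tween 20 at 15.625, 62.5 or 250 g/ha. Damage was scored after 13 days (0 = none, 100 = total).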

corn (Zea mays) [8] = experiment: Test G Pre-Emergence Protocol; conditions: Zea mays, pre-emergence, 312 h, evaluated after 13 days; for plant injury at 15.625 g/ha: 15.625 g ai/ha; for plant injury at 15.625 g/ha / plant injury at 250 g/ha: read-out: Corn damage rating (100=total damage to plant; 0=no damage to plant); for plant injury at 62.5 g/ha: 62.5 g ai/ha, 100=total damage to plant, 0=no damage to plant, read-out: Corn damage rating; for plant injury at 250 g/ha: 250 g ai/ha
Outline: as §2

[9] = tested on: redroot pigweed (Amaranthus retroflexus); experiment: Test G Pre-Emergence Protocol; conditions: Amaranthus retroflexus, pre-emergence, 312 h, evaluated after 13 days; for pest or weed control at 15.625 g/ha: 15.625 g ai/ha; for pest or weed control at 15.625 g/ha / pest or weed control at 250 g/ha: read-out: Pigweed, Redroot damage rating (100=total damage to plant; 0=no damage to plant); for pest or weed control at 62.5 g/ha: 62.5 g ai/ha, 100=total damage to plant, 0=no damage to plant, read-out: Pigweed, Redroot damage rating; for pest or weed control at 250 g/ha: 250 g ai/ha
Outline: as §2

[10] = tested on: ivy-leaved morning glory (Ipomoea hederacea); experiment: Test G Pre-Emergence Protocol; conditions: Ipomoea, pre-emergence, 312 h, evaluated after 13 days; for pest or weed control at 15.625 g/ha: 15.625 g ai/ha; for pest or weed control at 15.625 g/ha / pest or weed control at 250 g/ha: read-out: Morningglory, Ivy-leaved damage rating (100=total damage to plant; 0=no damage to plant); for pest or weed control at 62.5 g/ha: 62.5 g ai/ha, 100=total damage to plant, 0=no damage to plant, read-out: Morningglory, Ivy-leaved damage rating; for pest or weed control at 250 g/ha: 250 g ai/ha
Outline: as §2

[11] = tested on: barnyardgrass (Echinochloa crus-galli); experiment: Test G Pre-Emergence Protocol; conditions: Echinochloa crus-galli, pre-emergence, 312 h, evaluated after 13 days; for pest or weed control at 15.625 g/ha: 15.625 g ai/ha; for pest or weed control at 15.625 g/ha / pest or weed control at 250 g/ha: read-out: Barnyardgrass damage rating (100=total damage to plant; 0=no damage to plant); for pest or weed control at 62.5 g/ha: 62.5 g ai/ha, 100=total damage to plant, 0=no damage to plant, read-out: Barnyardgrass damage rating; for pest or weed control at 250 g/ha: 250 g ai/ha
Outline: as §2

[12] = tested on: velvetleaf (Abutilon theophrasti); experiment: Test G Pre-Emergence Protocol; conditions: Abutilon theophrasti, pre-emergence, 312 h, evaluated after 13 days; for pest or weed control at 15.625 g/ha: 15.625 g ai/ha; for pest or weed control at 15.625 g/ha / pest or weed control at 250 g/ha: read-out: Velvetleaf damage rating (100=total damage to plant; 0=no damage to plant); for pest or weed control at 62.5 g/ha: 62.5 g ai/ha, 100=total damage to plant, 0=no damage to plant, read-out: Velvetleaf damage rating; for pest or weed control at 250 g/ha: 250 g ai/ha
Outline: as §2

[13] = evaluated after 13 days, 100=total damage to plant, 0=no damage to plant

SMILES | pest or weed control at 15.625 g/ha [1] [%] | pest or weed control at 62.5 g/ha [1, 13] [%] | plant injury at 15.625 g/ha (corn (Zea mays) [2]) [%] | plant injury at 62.5 g/ha (corn (Zea mays) [2]) [%] | plant injury at 250 g/ha (corn (Zea mays) [2]) [%] | pest or weed control at 15.625 g/ha [3] [%] | pest or weed control at 62.5 g/ha [3] [%] | pest or weed control at 250 g/ha [3] [%] | pest or weed control at 15.625 g/ha [4] [%] | pest or weed control at 62.5 g/ha [4] [%] | pest or weed control at 250 g/ha [4] [%] | pest or weed control at 15.625 g/ha [5] [%] | pest or weed control at 62.5 g/ha [5] [%] | pest or weed control at 250 g/ha [5] [%] | pest or weed control at 15.625 g/ha [6] [%] | pest or weed control at 62.5 g/ha [6] [%] | pest or weed control at 250 g/ha [6] [%] | pest or weed control at 15.625 g/ha [7] [%] | pest or weed control at 62.5 g/ha [7] [%] | pest or weed control at 250 g/ha [7] [%] | further results
CN1CC(c2ccc(Cl)c([N+](=O)[O-])c2)C(C(=O)Nc2cccc(F)c2F)C1=O (centres unmarked) [Compound 1685] | 70 | 70 | 10 | 40 | 70 | 40 | 50 | 70 | 40 | 30 | 70 | 30 | 60 | 80 | 10 | 30 | 60 | 40 | 70 | 90 | pest or weed control at 250 g/ha ([1]; 250 g ai/ha, evaluated after 13 days, 100=total damage to plant, 0=no damage to plant): 80%; plant injury at 15.625 g/ha (corn (Zea mays) [8]): 0%; plant injury at 62.5 g/ha (corn (Zea mays) [8]): 0%; plant injury at 250 g/ha (corn (Zea mays) [8]): 60%; pest or weed control at 15.625 g/ha [9]: 0%; pest or weed control at 62.5 g/ha [9]: 10%; pest or weed control at 250 g/ha [9]: 60%; pest or weed control at 15.625 g/ha [10]: 10%; pest or weed control at 62.5 g/ha [10]: 20%; pest or weed control at 250 g/ha [10]: 30%; pest or weed control at 15.625 g/ha [11]: 30%; pest or weed control at 62.5 g/ha [11]: 70%; pest or weed control at 250 g/ha [11]: 80%; pest or weed control at 15.625 g/ha [12]: 10%; pest or weed control at 62.5 g/ha [12]: 10%; pest or weed control at 250 g/ha [12]: 30%
Cc1cc(C#N)cc(C2CN(C)C(=O)C2C(=O)Nc2cccc(F)c2F)c1 (centres unmarked) [Compound 1691] | 60 | 80 | 0 | 0 | 70 | 0 | 0 | 0 | 0 | 60 | 30 | 30 | 70 | 70 | 0 | 10 | 20 | 60 | 90 | 90 | plant injury at 15.625 g/ha (corn (Zea mays) [8]): 0%; plant injury at 62.5 g/ha (corn (Zea mays) [8]): 20%; plant injury at 250 g/ha (corn (Zea mays) [8]): 80%; pest or weed control at 15.625 g/ha [9]: 0%; pest or weed control at 62.5 g/ha [9]: 20%; pest or weed control at 250 g/ha [9]: 30%; pest or weed control at 15.625 g/ha [10]: 0%; pest or weed control at 62.5 g/ha [10]: 20%; pest or weed control at 250 g/ha [10]: 50%; pest or weed control at 15.625 g/ha [11]: 20%; pest or weed control at 62.5 g/ha [11]: 70%; pest or weed control at 250 g/ha [11]: 80%; pest or weed control at 15.625 g/ha [12]: 0%; pest or weed control at 62.5 g/ha [12]: 40%; pest or weed control at 250 g/ha [12]: 60%
